Experimental data: patent publication US20050282745A1, “Non-mammalian GnRH analogs and uses thereof in regulation of fertility and pregnancy” (priority 2001, published 2005)
Non-standard residues stand in square brackets, D forms with d. Residues, ends and D or L forms follow the SMILES beside them. pGlu = O=C1CC[C@@H](C(=O)O)N1; azaGly = NNC(=O)O

Columns and labels:
[1] = tested on: human placental GnRH receptor; experiment: Placental GnRH receptor binding, 125I-Buserelin label; conditions: Buserelin label
Description: The newly synthesized non-mammalian GnRH analogs and other commercially available mammalian GnRH analogs were used in placental receptors binding and enzyme stability study described here. […] GnRH receptors were purified from the membrane fractions from placentas. The purification procedure for the placental GnRH receptor was performed using a modification of the method described by Bramley et al., which reference is specifically incorporated herein by reference for the purpose. Addition of enzyme inhibitors for the endogenous C-ase-1 were used as well as agents for receptor stabilization. Initially, receptor-binding assays using ^125I-Buserelin as label were performed. The competitive binding of each of the analogs was studied over a dose range of 10^−11 to 10^−6 M. Incubation was at room temperature and receptor bound label was precipitated with polyethylene glycol. Specific and non-specific binding was determined. The data was subjected to Scatchard analysis. The non-mammalian GnRH analogs' ability to bind to the placental GnRH receptor was compared to that for synthetic mammalian GnRH (SEQ ID NO: 5), Buserelin (SEQ ID NO: 10) and other mammalian analogs. […] This way, the receptor affinity for that analog could be precisely determined. Receptors from three different term placentas were used to study each of these analogs. […] Bramley T A, McPhie C A, Menzies G S 1994 Human placental gonadotropin-releasing hormone (GnRH) binding sites: 111. […] Placenta 15:733-745.
In these and additional studies, placental GnRH receptors were purified from human term placentas after homogenization in 40 mM Tris (pH 7.4) and filtered through cheesecloth, followed by an initial centrifugation at 1,000×g for 10 minutes. The resulting supernatant was, again, centrifuged at 35,000×g for 30 minutes and the membrane pellet was collected and resuspended in Tris buffer with 0.3 M sucrose. The protein concentration was determined. Membranes were stored frozen at −20 C until use. Before use, placental membranes were diluted to 5,000 μg/mL with Tris buffer containing 0.5% BSA and 50 U/mL bacitracin. […] Following incubation at room temperature for 4 hours, the bound and free hormones were separated using polyethylene glycol precipitation, followed by centrifugation. The binding affinity for each GnRH isoform or analog was calculated using the double reciprocal plot of bound versus free ligand. Each study was done using three different human term placental tissues.
Receptor assays were performed by incubating human term placental GnRH receptors with varying concentrations of GnRH or its analogs in the presence of ^125I-Buserelin. The reaction was stopped and the bound hormone precipitated with polyethylene glycol.

[2] = tested on: early human placental explants; experiment: Placental explant perifusion, hCG release; format: cell-based; conditions: for pattern of hCG response: continuous perifusion
Description: Placental tissues that are normally discarded were obtained from unidentified patients following first trimester pregnancy termination (early human placental explants). Tissue fragments, dissected of vessels and membranes, were placed in a perfusion system for study of 20 replicate chambers of the same tissue. This allows for simultaneous dose-response studies to be performed. To achieve this specific aim, explants from a given placenta were placed in 20 replicate chambers and perfused with basal medium for three hours at a rate of 6 ml/hr (dead volume of the system at 6 ml/hr is ten minutes). After three hours of equilibration, the analog was added to the basal perfusing medium. Quaduplicate chambers were made for chicken II GnRH analog (SEQ ID NO: 2) at 0, 10^−9, 10^−8, 10^−7, 10^−6 M and Buserelin (SEQ ID NO: 10) at 10^−7 M. The effluent medium of each chamber was collected after a three hour equilibration period. Two basal samples, at half hour intervals were collected, media with test substances was initiated and effluent medium collection continued for four and one half hours at thirty minute intervals. The hCG release was analyzed in each of these experiments. FIGS. 16 and 17 illustrate a typical response. […] Maximal response was observed within minutes after initiation of perfusion at 10^−8 M, with possible down regulation beginning after five hours at 10^−6 M as illustrated in FIG. 18.
In additional experiments, early gestation human placentas were perfused for six hours with medium supplemented with estradiol, progesterone, bovine serum albumin, and antibiotics (basal medium). Twenty replicate chambers were perifused with basal medium for two hours, then triplicate chambers were perifused with the medium containing either Buserelin (SEQ ID NO: 10), or 10^−9, 10^−8, 10^−7, 10^−6 M of a chicken II GnRH analog (SEQ ID NO: 2), leaving five control chambers. The eluted medium was collected at thirty minute intervals, starting one hour prior to the addition of GnRH analogs and throughout five hours of treatment. hCG released into the effluent media, as well as the production of GnRH, were measured using sensitive and specific radioimmunoassays. The release of hCG at each time point was normalized to its zero treatment release and the release throughout the treatment period and its average release was compared for various treatment regimens. These studies were repeated using tissues from three different first trimester placentas. The results of this experiment are illustrated in FIG. 20.

[3] = tested on: human granulosa cells receptor; experiment: Human granulosa cell receptor binding
Description: Due to the limited number of cells it was not possible to precisely define the affinity of this receptor.

[4] = tested on: rhesus monkey; experiment: Contraceptive activity in mated rhesus monkeys, osmotic mini-pump; format: in vivo
Description: In these studies we examined the effect of a stable analog of chicken II GnRH on ovarian steroidogenesis, implantation and maintainence of pregnancy in the rhesus monkey. We administered this chicken II GnRH analog (SEQ ID NO: 2) or saline via osmotic mini-pumps from Day 1-6, Day 6-11 or Day 11-17 to regularly cycling monkeys mated with fertile males around the time of ovulation. Circulating estradiol (E2) and progesterone (P) in the luteal phase was observed as well as cycle length in this and subsequent cycle. Implantation and pregnancy were confirmed by circulating CG and continued progesterone production. […] In animals treated on day 6-11 or days 11-17, no effect on luteinization or cycle length was noted; and two of five (40.0%), and one of three animals (33.3%), respectively, implanted with normal pregnancies resulting.

[5] = tested on: baboon ovarian enzymatic activity
Description: In these studies the enzyme was in the ovarian extract.
In this assay, following incubation of the enzyme and GnRH, with and without the chosen analog, the reaction was stopped by heating and the remaining GnRH substrate was quantified by radioimmunoassay. The product formed is calculated by subtraction, and its inverse plotted against the inverse of the original substrate concentrations to determine the nature of the competition. The Ki was determined by plotting the inverse of the product formed versus the inhibitor used.

[6] = biological target: chorionic peptidase-1 (C-ase-1); experiment: C-ase-1 enzyme activity assay, competition for degradation of GnRH; conditions: competition for degradation of mammalian GnRH, Example III
Description: Using the incubation system developed for the C-ase-1 activity, the degradation of each analog was tested. […] These studies were done using the C-ase-1 enzyme activity assay as described previously. […] The product formed was calculated by subtraction, and its inverse plotted against the inverse of the original substrate concentrations to determine the nature of the competition. The Ki was to be determined by plotting the inverse of the product that formed verses the inhibitor used.
The concentration of the product of the degraded GnRH was quantified by subtracting the remaining mammalian GnRH from the starting concentrations of mammalian GnRH. […] The Ks for the degradation of mammalian GnRH was calculated from the x axis intercept using Lineweaver-Burke double reciprocal plot of the concentration of the product formed versus the concentration of the substrate used.
The reaction was stopped by heating at 85° C. for 10 minutes. The remaining GnRH was determined using a specific radioimmunoassay. The formation of product, i.e., the N-terminal nonapeptide of GnRH, was calculated by subtraction and its inverse was plotted versus the inverse of the initial substrate to determine the Ks of the reaction. […] The relative potency of each analog was compared.
Using the incubation system developed for the C-ase-1 activity, the degradation of each analog was studied. […] The inverse of the product was plotted against the inverse of the original substrate concentrations to determine Ks of the competition. The Ki was determined by plotting the inverse of the product formed verses the inhibitor used.

SMILES: N=C(N)NCCC[C@@H](NC(=O)[C@H](Cc1c[nH]cn1)NC(=O)[C@H](CO)NC(=O)[C@H](Cc1c[nH]c2ccccc12)NC(=O)[C@H](Cc1c[nH]cn1)NC(=O)[C@@H]1CCC(=O)N1)C(=O)N[C@@H](Cc1c[nH]c2ccccc12)C(=O)N[C@@H](Cc1ccc(O)cc1)C(=O)N1CCC[C@H]1C(=O)NNC(N)=O [D-Arg(6)-chicken II GnRH-aza-Gly(10)-amide] ([pGlu]HWSH[dR]WYP[azaGly]-NH2)
- receptor binding potency compared with chicken II GnRH isoform or Buserelin ([1]; Example II): 2 fold
- receptor binding potency compared with mammalian GnRH ([1]; Example II): 60 fold
- Kd ([1]; term placental membranes, read-out: dissociation constant (Kd)): 175 ± 59 nM
- concentration giving maximal hCG response ([2]; 10^−9 to 10^−6 M tested): 10^−8 M
- pattern of hCG response ([2]; listed as Chicken II GnRH analog): dose related biphasic response
- pattern of hCG response ([2]; listed as chicken II GnRH analog): biphasic stimulation of hCG
- receptor binding [3]: receptor binding for the GnRH analog was observed
- pregnancies ([4]; treated Day 1-6): no pregnancies resulted
- effect on progesterone production or cycle length ([4]; treated day 1-6): no significant effect
- animals implanted with normal pregnancies ([4]; treated day 6-11, two of five): 40.0%
- effect on luteinization or cycle length ([4]; treated day 6-11 or days 11-17): no effect
- animals implanted with normal pregnancies ([4]; treated days 11-17, one of three): 33.3%
- stability compared with mammalian GnRH [5]: more than 50 times
- Ki ([5]; competition with degradation of mammalian GnRH): ≥ 1500 nM
- Ki [6]: > 400 nM
